Values of other authors in patent US20040120994A1, “Transdermal therapeutic system containing testorone and method for its production thereof” (priority 2001, published 2004).

What was measured:
[1] = system: transport proteins; settings: in the blood

Question: For C[C@]12CC[C@H]3[C@@H](CCC4=CC(=O)CC[C@@]43C)[C@@H]1CC[C@@H]2O [testosterone], which plasma half-life is on record?
Answer: around 80 min.

Question: And the “testosterone bound to transport proteins” value [1]?
Answer: 98%
